Bounds are passed on as bounds.

The target in this assay is T1, Recombinant human His-tagged Trim24-PHD-bromodomain (Homo sapiens, UniProt O15164).
T1 construct: Recombinant human His-tagged Trim24-PHD-bromodomain (produced in-house); made in house
T1 sequence (O15164 824-1006 limits assumed): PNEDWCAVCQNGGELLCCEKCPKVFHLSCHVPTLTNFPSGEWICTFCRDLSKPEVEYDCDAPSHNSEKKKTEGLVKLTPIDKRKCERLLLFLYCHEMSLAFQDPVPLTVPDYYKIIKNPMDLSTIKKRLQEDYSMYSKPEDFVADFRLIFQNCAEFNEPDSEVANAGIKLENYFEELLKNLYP
In words: Trim24 AlphaScreen Assay. Format: binding. Conditions: 5 nM Trim24 protein, 15 nM biotinylated H3K23ac (1-33aa) peptide. In short, it runs like this: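 AlphaScreen read-out after 2 h with streptavidin donor and Ni-chelate acceptor beads at 10 ug/mL each, following 1 h room-temperature incubation of compound, His-tagged PHD-bromodomain protein and biotin-H3K23ac (1-33aa) peptide in Hepes pH 7.5 buffer with NaCl and Triton X-100. Signals normalised between no-compound and no-protein wells; IC50 from four-parameter logistic curves.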
For orientation: Alpha assays give light when donor and acceptor beads are brought close together.
Broadly, the IC50 is the midpoint of a concentration-inhibition curve. Turning to `CCn1cc(S(=O)(=O)Nc2cc3c(cc2Oc2cccc(OCc4ccccc4)c2)n(C)c(=O)n3C)cn1` [Example 77, N-(6-(3-(benzyloxy)phenoxy)-1,3-dimethyl-2-oxo-2,3-dihydro-1H-benzo[d]imidazol-5-yl)-1-ethyl-1H-pyrazole-4-sulfonamide], the IC50 is 100 to 1000 nM. With `Cn1c(=O)n(C)c2cc(Oc3cccc(OCc4ccccc4)c3)c(NS(=O)(=O)c3c[nH]cn3)cc21` [Example 78, N-(6-(3-(benzyloxy)phenoxy)-1,3-dimethyl-2-oxo-2,3-dihydro-1H-benzo[d]imidazol-5-yl)-1H-imidazole-4-sulfonamide], the IC50 is 100 to 1000 nM. In the case of `Cc1cc(S(=O)(=O)Nc2cc3c(cc2Oc2cccc(OCc4ccccc4)c2)n(C)c(=O)n3C)n(C)n1` [Example 79, N-(6-(3-(benzyloxy)phenoxy)-1,3-dimethyl-2-oxo-2,3-dihydro-1H-benzo[d]imidazol-5-yl)-1,3-dimethyl-1H-pyrazole-5-sulfonamide] it was more than 1000 nM. With `Cn1ccnc1S(=O)(=O)Nc1cc2c(cc1Oc1cccc(OCc3ccccc3)c1)n(C)c(=O)n2C` [Example 80, N-(6-(3-(benzyloxy)phenoxy)-1,3-dimethyl-2-oxo-2,3-dihydro-1H-benzo[d]imidazol-5-yl)-1-methyl-1H-imidazole-2-sulfonamide], the IC50 is more than 1000 nM.

Regarding `Cn1c(=O)n(C)c2cc(Oc3cccc(OCc4ccccc4)c3)c(NS(=O)(=O)CCO)cc21` [Example 81, N-(6-(3-(benzyloxy)phenoxy)-1,3-dimethyl-2-oxo-2,3-dihydro-1H-benzo[d]imidazol-5-yl)-2-hydroxyethane-1-sulfonamide], the concentration for half-maximal inhibition (IC50) is more than 1000 nM. For the compound `CCCOc1cccc(Oc2cc3c(cc2NS(=O)(=O)C2CC2)n(C)c(=O)n3C)c1` [Example 82, N-(1,3-dimethyl-2-oxo-6-(3-propoxyphenoxy)-2,3-dihydro-1H-benzo[d]imidazol-5-yl)cyclopropanesulfonamide], the half-inhibitory concentration (IC50) lay in the range of 100 to 1000 nM. In the case of `CCCOc1cccc(Oc2cc3c(cc2NS(=O)(=O)c2cn(C)cn2)n(C)c(=O)n3C)c1` [Example 83, N-(1,3-dimethyl-2-oxo-6-(3-propoxyphenoxy)-2,3-dihydro-1H-benzo[d]imidazol-5-yl)-1-methyl-1H-imidazole-4-sulfonamide] it was 10 to 100 nM; in that of `Cn1cnc(S(=O)(=O)Nc2cc3c(cc2Oc2cccc(OCCCC(F)(F)F)c2)n(C)c(=O)n3C)c1` [Example 84, N-(1,3-dimethyl-2-oxo-6-(3-(4,4,4-trifluorobutoxy)phenoxy)-2,3-dihydro-1H-benzo[d]imidazol-5-yl)-1-methyl-1H-imidazole-4-sulfonamide], 100 to 1000 nM; in that of `CCCOc1cccc(Oc2cc3c(cc2NS(=O)(=O)CCOC)n(C)c(=O)n3C)c1` [Example 85, N-(1,3-dimethyl-2-oxo-6-(3-propoxyphenoxy)-2,3-dihydro-1H-benzo[d]imidazol-5-yl)-2-methoxyethane-1-sulfonamide], 100 to 1000 nM.

Regarding `CCCOc1cccc(Oc2cc3c(cc2NS(=O)(=O)c2c[nH]cn2)n(C)c(=O)n3C)c1` [Example 86, N-(1,3-dimethyl-2-oxo-6-(3-propoxyphenoxy)-2,3-dihydro-1H-benzo[d]imidazol-5-yl)-1H-imidazole-4-sulfonamide], the IC50 lay within 10 to 100 nM. Consider `CCCOc1cccc(Oc2cc3c(cc2NS(=O)(=O)c2nnc[nH]2)n(C)c(=O)n3C)c1` [Example 87, N-(1,3-diemthyl-2-oxo-6-(3-propoxyphenoxy)-2,3-dihydro-1H-benzo[d]imidazol-5-yl)-4H-1,2,4-triazole-3-sulfonamide], for which the concentration for half-maximal inhibition (IC50) was 100 to 1000 nM. In the case of `Cn1c(=O)n(C)c2cc(Oc3cccc(OCC(F)(F)F)c3)c(NS(=O)(=O)c3c[nH]cn3)cc21` [Example 88, N-(1,3-dimethyl-2-oxo-6-(3-(2,2,2-trifluoroethoxy)phenoxy)-2,3-dihydro-1H-benzo[d]imidazol-5-yl)-1H-imidazole-4-sulfonamide] it was 10 to 100 nM; in that of `COCCS(=O)(=O)Nc1cc2c(cc1Oc1cccc(OCC(F)(F)F)c1)n(C)c(=O)n2C` [Example 89, N-(1,3-dimethyl-2-oxco-6-(3-(2,2,2-trifluoroethoxy)phenoxy)-2,3-dihydro-1H-benzo[d]imidazol-5-yl)-2-methoxyethane-1-sulfonamide], 100 to 1000 nM. Regarding `CCCOc1cc(OCCC)cc(Oc2cc3c(cc2NS(=O)(=O)c2cn(C)c(C)n2)n(C)c(=O)n3C)c1` [Example 90, N-(6-(3,5-dipropoxyphenoxy)-1,3-diemthyl-2-oxo-2,3-dihydro-1H-benzo[d]imidazol-5-yl)-1,2-dimethyl-1H-imidazole-4-sulfonamide], the IC50 lay within 10 to 100 nM. In the case of `CCCOc1cccc(Oc2cc3c(cc2NS(=O)(=O)c2cnn(C)c2C)n(C)c(=O)n3C)c1` [Example 91, N-(1,3-dimethyl-2-oxo-6-(3-propoxyphenoxy)-2,3-dihydro-1H-benzo[d]imidazol-5-yl)-1,5-dimethyl-1H-pyrazole-4-sulfonamide] it was 10 to 100 nM. In the case of `CCCOc1cccc(Oc2cc3c(cc2NS(=O)(=O)c2c(C)n[nH]c2C)n(C)c(=O)n3C)c1` [Example 92, N-(1,3-dimethyl-2-oxo-6-(3-propoxyphenoxy)-2,3-dihydro-1H-benzo[d]imidazol-5-yl)-3,5-dimethyl-1H-pyrazole-4-sulfonamide] it was 10 to 100 nM; in that of `CCCOc1cccc(Oc2cc3c(cc2NS(=O)(=O)c2cc(C)nn2C)n(C)c(=O)n3C)c1` [Example 93, N-(1,3-dimethyl-2-oxo-6-(3-propoxyphenoxy)-2,3-dihydro-1H-benzo[d]imidazol-5-yl)-1,3-dimethyl-1H-pyrazole-5-sulfonamide], 100 to 1000 nM. In the case of `CCCOc1cc(OCCCOC)cc(Oc2cc3c(cc2NS(=O)(=O)c2cn(C)c(C)n2)n(C)c(=O)n3C)c1` [Example 94, N-(6-(3-(3-methoxypropoxy)-5-propoxyphenoxy)-1,3-dimethyl-2-oxo-2,3-dihydro-1H-benzo[d]imidazol-5-yl)-1,2-dimethyl-1H-imidazole-4-sulfonamide], the IC50 is 10 to 100 nM. Consider `Cn1c(=O)n(C)c2cc(Oc3cccc(OCC(F)(F)F)c3)c(NS(=O)(=O)C3CCOC3)cc21` (stereo not shown) [Example 95, N-(1,3-dimethyl-2-oxo-6-(3-(2,2,2-trifluoroethoxy)phenoxy)-2,3-dihydro-1H-benzo[d]imidazol-5-yl)tetrahydrofuran-3-sulfonamide], for which the IC50 lay within 100 to 1000 nM. With `COCCCn1cnc(S(=O)(=O)Nc2cc3c(cc2Oc2cccc(OCC(F)(F)F)c2)n(C)c(=O)n3C)c1` [Example 96, N-(1,3-dimethyl-2-oxo-6-(3-(2,2,2-trifluoroethoxy)phenoxy)-2,3-dihydro-1H-benzo[d]imidazol-5-yl)-1-(3-methoxypropyl)-1H-imidazole-4-sulfonamide], the concentration for half-maximal inhibition (IC50) was 10 to 100 nM.

In the case of `Cn1cnc(S(=O)(=O)Nc2cc3c(cc2Oc2cccc(OCCCC#N)c2)n(C)c(=O)n3C)c1` [Example 97, N-(6-(3-(3-cyanopropoxy)phenoxy)-1,3-dimethyl-2-oxo-2,3-dihydro-1H-benzo[d]imidazol-5-yl)-1-methyl-1H-imidazole-4-sulfonamide], the half-inhibitory concentration (IC50) lay within 100 to 1000 nM. In the case of `CCCOc1cc(OCCCO)cc(Oc2cc3c(cc2NS(=O)(=O)c2cn(C)c(C)n2)n(C)c(=O)n3C)c1` [Example 98, N-(6-(3-(3-hydroxypropoxy)-5-propoxyphenoxy)-1,3-dimethyl-2-oxo-2,3-dihydro-1H-benzo[d]imidazol-5-yl)-1,2-dimethyl-1H-imidazole-4-sulfonamide] it was 10 to 100 nM; in that of `CCCOc1cccc(Oc2cc3c(cc2NS(=O)(=O)c2cccnc2)n(C)c(=O)n3C)c1` [Example 99, N-(1,3-dimethyl-2-oxo-6-(3-propoxyphenoxy)-2,3-dihydro-1H-benzo[d]imidazol-5-yl)pyridine-3-sulfonamide], 10 to 100 nM; in that of `Cn1cnc(S(=O)(=O)Nc2cc3c(cc2Oc2cccc(OCC4CC4)c2)n(C)c(=O)n3C)c1` [Example 100, N-(6-(3-(cyclopropylmethoxy)phenoxy)-1,3-dimethyl-2-oxo-2,3-dihydro-1H-benzo[d]imidazol-5-yl)-1-methyl-1H-imidazole-4-sulfonamide], 10 to 100 nM. In the case of `Cn1cc(S(=O)(=O)Nc2cc3c(cc2Oc2cccc(OCC4CC4)c2)n(C)c(=O)n3C)cn1` [Example 101, N-(6-(3-(cyclopropylmethoxy)phenoxy)-1,3-dimethyl-2-oxo-2,3-dihydro-1H-benzo[d]imidazol-5-yl)-1-methyl-1H-pyrazole-4-sulfonamide] it was 10 to 100 nM. To `Cc1c(S(=O)(=O)Nc2cc3c(cc2Oc2cccc(OCC4CC4)c2)n(C)c(=O)n3C)cnn1C` [Example 102, N-(6-(3-(cyclopropylmethoxy)phenoxy)-1,3-dimethyl-2-oxo-2,3-dihydro-1H-benzo[d]imidazol-5-yl)-1,5-dimethyl-1H-pyrazole-4-sulfonamide] belongs 10 to 100 nM. Regarding `CCCOc1cccc(Oc2cc3c(cc2NS(=O)(=O)c2cn(C)cn2)n(C)c(=O)n3C)c1C` [Example 103, N-(1,3-dimethyl-6-(2-methyl-3-propoxyphenoxy)-2-oxo-2,3-dihydro-1H-benzo[d]imidazol-5-yl)-1-methyl-1H-imidazole-4-sulfonamide], the IC50 is more than 1000 nM. To `CCCOc1ccc(F)c(Oc2cc3c(cc2NS(=O)(=O)c2cn(C)cn2)n(C)c(=O)n3C)c1` [Example 104, N-(6-(2-fluoro-5-propoxyphenoxy)-1,3-dimethyl-2-oxo-2,3-dihydro-1H-benzo[d]imidazol-5-yl)-1-methyl-1H-imidazole-4-sulfonamide] belongs more than 1000 nM.

The values above are taken from patent US20160060260A1, “BROMODOMAIN INHIBITORS FOR TREATING DISEASE” (Board of Regents, The University of Texas System, priority 2014, published 2016).
